What was measured:
Endo-A [1] = biological target: T1, Endo-A (Glutamicibacter protophormiae, UniProt Q9ZB22); assay: Endo-A catalyzed transglycosylation of synthetic oligosaccharide oxazolines (donor substrates) with GlcNAc-peptide/protein acceptors; assay type: biochemical, Arthrobacter protophormiae; conditions: for donor substrate activity in Endo-A catalyzed transglycosylation: GlcNAc-tripeptide acceptor (27 or 40), phosphate buffer pH 6.5; for relative transglycosylation rates (order): acceptor 27, same conditions; for donor substrate activity in Endo-A transglycosylation to large acceptor: acceptor GlcNAc-C34, donor/acceptor 5:1
T1 sequence (Q9ZB22 entry or part of it): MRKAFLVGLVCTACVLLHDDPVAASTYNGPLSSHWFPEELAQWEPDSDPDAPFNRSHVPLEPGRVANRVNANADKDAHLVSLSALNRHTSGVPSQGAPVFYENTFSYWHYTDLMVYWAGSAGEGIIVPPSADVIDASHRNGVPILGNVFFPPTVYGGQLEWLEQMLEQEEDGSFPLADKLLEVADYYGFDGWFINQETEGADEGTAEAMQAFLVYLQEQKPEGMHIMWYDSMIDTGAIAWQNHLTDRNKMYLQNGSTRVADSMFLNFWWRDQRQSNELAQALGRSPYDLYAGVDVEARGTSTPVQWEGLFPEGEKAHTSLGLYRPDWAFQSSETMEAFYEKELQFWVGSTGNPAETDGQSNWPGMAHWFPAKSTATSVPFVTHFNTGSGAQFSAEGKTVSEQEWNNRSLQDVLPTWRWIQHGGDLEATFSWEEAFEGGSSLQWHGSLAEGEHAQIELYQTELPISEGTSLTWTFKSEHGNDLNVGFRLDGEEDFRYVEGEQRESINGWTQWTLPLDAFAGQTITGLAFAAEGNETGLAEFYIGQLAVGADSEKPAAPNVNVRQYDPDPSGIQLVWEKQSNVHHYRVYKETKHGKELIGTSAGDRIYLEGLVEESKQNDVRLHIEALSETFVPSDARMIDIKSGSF
Description: To test the transglycosylation potential of the synthetic oligosaccharide oxazolines, a small GlcNAc-tripeptide acceptor, Asn(GlcNAc)-Ile-Thr was synthesized, which represents the minimum consensus sequence for the N24 and N38 N-glycosylation sites in erythropoietin, an important therapeutic glycoprotein for the treatment of anemia.[25] […] As expected, the Endo-A catalyzed reaction of oxazolines 1 and 2 with the GlcNAc-peptide 27 (donoracceptor 3:1) proceeded smoothly in a phosphate buffer (pH 6.5) to give the corresponding N-glycopeptides 28 and 29 in 63 and 86% yields, respectively. […] Thus incubation of 3 and acceptor 27 (ratio 3:1) in the presence of Endo-A gave glycopeptide 30 carrying the N-linked tetrasaccharide moiety in 72% isolated yield. […] The Endo-A catalyzed reaction of 4 with acceptor 27 (3:1) afforded the modified glycopeptide 31 in 55% isolated yield.
(§1) In all cases, the newly formed glycosidic bond in the resulting glycopeptides 28, 29, 30, and 31 was determined by 2D NMR analysis (data not shown) to be a β-1,4-glycosidic linkage, confirming the previous conclusion that the Endo-A catalyzed transglycosylation using oligosaccharide oxazoline as the donor substrates proceeded in a regio- and stereospecific manner.[11]
Next, the structurally related disaccharide oxazolines 5-7 were tested. […] Despite this, the enzyme could tolerate selective modification on the mannose moiety, for example, attachment of additional sugar moieties at the 3′,6′-positions and even an aromatic group at the 6′-position.
(§2) This led to the synthesis of the large glycopeptide 32 that contains the core N-linked tetrasaccharide (75% yield) and glycopeptide 33 which carries a modified trisaccharide (68%) when an excess oxazoline donor (donor/acceptor 5:1) was used. […] Finally, we also tested whether Endo-A could hydrolyze the resulting “ground-state” glycopeptides 28-33 carrying the N-linked core tri-, tetra-, and pentasaccharide, respectively.
A mixture of the respective oligosaccharide oxazoline (10-30 μmol) and the GlcNAc-tripeptide 27 (3 molar equivalents of the donor) or the GlcNAc-C34[7] (5 molar equivalents of the donor) in a phosphate buffer (50 mM, pH 6.5, 0.5-1 mL) was incubated at 25° C. with the enzyme Endo-A (100 mU). The oxazoline derivative was added in portions during the reaction. The reaction was monitored by analytical HPLC by taking aliquots at intervals. It was observed that the transglycosylation reaction with the disaccharide oxazoline derivatives 1 and 4 proceeded slowly and took more than 48 h for reaching the plateau, while the transglycosylation with the tetrasaccharide oxazoline 2 proceeded quickly and would be complete within 2 h. The reaction was stopped by heating in a boiling water bath for 3 min when the peak of the transglycosylation product reached the maximum. The product was purified by preparative HPLC on a Waters preparative column (Symmetry 300, 19×300 mm) to afford the respective glycopeptide, which was characterized by NMR and ESI-MS).
To examine whether the endoglycosidase Endo-A is able to recognize the synthetic nonnatural sugar oxazoline for trans-glycosylation, a model reaction was carried out with a small GlcNAc-peptide, Ac-Asn(GlcNAc)-Ile-Thr (40),[9] as the acceptor, as shown in FIG. 11. The enzymatic reaction was monitored by reverse-phase HPLC. It was observed that the reaction between 39 and 40 (molar ratio 2:1) occurred quickly in the presence of Endo-A, while no ligation would occur in the absence of the enzyme. The glycosylation of the acceptor 40 with oxazoline 39 under the catalysis of Endo-A was essentially complete within 30 min to form the glycopeptide 41, which was isolated in 98% yield. The identity of the glycopeptide was characterized by ESI-MS and NMR.
A mixture of the hexasaccharide oxazoline 39 (0.69 mg, 0.68 μmol) and the GlcNAc-tripeptide 40 (0.2 mg, 0.34 μmol) in a phosphate buffer (50 mM, pH 6.5, 100 μl) was incubated at 23° C. with the enzyme Endo-A (200 mU). […]

Endo-A [2] = biological target: T1, Endo-A; assay: as above; assay type: biochemical, Arthrobacter protophormiae; conditions: acceptor GlcNAc-RB (43), donor/acceptor 2:1, pH 6.5, 23° C., Endo-A 200 mU
Bacillus chitinase = conditions: cited from earlier work
Endo-A [3] = biological target: T1, Endo-A; assay: Endo-A catalyzed hydrolysis of oxazolines and of the resulting glycopeptides/glycoprotein; assay type: biochemical, Arthrobacter protophormiae; conditions: glycopeptides: in the presence of large amount of Endo-A
Protocol: as §1, §2
This is understandable because glycoprotein 44 carries a nonnatural N-glycan and Endo-A is known to hydrolyze only high-mannose type natural N-glycans. […] All these factors contribute to the formation of the trans-glycosylation product. Similarly, Endo-A catalyzed reaction of GlcNAc-RB with the tetrasaccharide oxazoline 2 [7] gave the glycoprotein 45 carrying the core N-linked pentasaccharide Man3GlcNAc2 in 82% yield (Scheme 3). Again, the observed MS (14574.5 Da, from the deconvolution of the ESI-MS data) of the isolated product matches well with the calculated MS (14575.6 Da) of glycoprotein 45. […]

For `CC1=N[C@H]2[C@@H](O1)O[C@H](CO)[C@@H](O[C@@H]1O[C@H](CO)[C@@H](O)[C@H](O)[C@@H]1O)[C@@H]2O` [oxazoline 1], the “donor substrate activity in Endo-A catalyzed transglycosylation” value (Endo-A [1]) was “good donor substrates” and the “relative transglycosylation rates (order)” value (Endo-A [1]) was “tetrasaccharide oxazoline 2>trisaccharide oxazoline 3>disaccharide oxazoline 1>Bn-substituted disaccharide oxazoline 4”.

In the case of `CC1=NC2C(O1)OC(CO)C(OC1OC(CO)C(O)C(O)C1O)C2O` (stereo not drawn) [oxazoline 5], the “donor substrate activity in Endo-A catalyzed transglycosylation” value (Endo-A [1]; listed as 5) is reported as “inactive”.

In the case of “O-β-D-Galactopyranosyl-(1→4)-α-D-mannopyranosyl-(1→3)-[β-D-galactopyranosyl-(1→4)-α-D-mannopyranosyl-(1→6)]-β-D-mannopyranosyl-(1β4)-(1,2-dideoxy-α-D-glucopyrano)-[2,1-d]-2-oxazoline [oxazoline 39]”, the “time to complete conversion of GlcNAc-RB” value (Endo-A [2]) is reported as at most 2 h, the “donor substrate activity in Endo-A catalyzed transglycosylation” value (Endo-A [1]) is reported as “excellent substrate” and the “time to essentially complete glycosylation of acceptor 40” value (Endo-A [1]; acceptor Ac-Asn(GlcNAc)-Ile-Thr (40), donor/acceptor 2:1, 23° C., Endo-A 200 mU) is reported as at most 30 min. For the same molecule, the “transglycosylation rate compared with enzymatic hydrolysis of the oxazoline” value (Endo-A [1]; in the presence of a GlcNAc-peptide or protein acceptor) was “much faster”.

In the case of `CC1=N[C@H]2[C@@H](O1)O[C@H](CO)[C@@H](O[C@@H]1O[C@H](COCc3ccccc3)[C@@H](O)[C@H](O)[C@@H]1O)[C@@H]2O` [oxazoline 4], the “donor substrate activity in Endo-A catalyzed transglycosylation” value (Endo-A [1]) is reported as “could still be recognized by Endo-A as a donor substrate”, the “relative transglycosylation rates (order)” value (Endo-A [1]) is reported as “tetrasaccharide oxazoline 2>trisaccharide oxazoline 3>disaccharide oxazoline 1>Bn-substituted disaccharide oxazoline 4” and the “donor substrate activity in Endo-A transglycosylation to large acceptor” value (Endo-A [1]) is reported as “proceeded successfully”.

For `CC1=NC2C(O1)OC(CO)C(OC1OC(CO)C(O)C(O)C1O)C2O` (stereo not drawn) [oxazoline 7, LacNAc-oxazoline, reference compound], the “donor substrate activity in Endo-A catalyzed transglycosylation” value (Endo-A [1]; listed as 7) is listed as “could not be recognized by Endo-A” and the “substrate of Bacillus chitinase” value (Bacillus chitinase) is listed as “substrates”.

In the case of `CC1=N[C@H]2[C@@H](O1)O[C@H](CO)[C@@H](O[C@@H]1O[C@H](CO[C@H]3O[C@H](CO)[C@@H](O)[C@H](O)[C@@H]3O)[C@@H](O)[C@H](O)[C@@H]1O)[C@@H]2O` [oxazoline 3], the “donor substrate activity in Endo-A catalyzed transglycosylation” value (Endo-A [1]) is reported as “efficient donor substrate”, the “relative transglycosylation rates (order)” value (Endo-A [1]) is reported as “tetrasaccharide oxazoline 2>trisaccharide oxazoline 3>disaccharide oxazoline 1>Bn-substituted disaccharide oxazoline 4” and the “donor substrate activity in Endo-A transglycosylation to large acceptor” value (Endo-A [1]) is reported as “proceeded successfully”.

For `CC(=O)N[C@H]1[C@H](O[C@H]2[C@H](O)[C@H]3N=C(C)O[C@H]3O[C@@H]2CO)O[C@H](CO)[C@@H](O)[C@@H]1O` [oxazoline 6, chitobiose oxazoline, reference compound], the “donor substrate activity in Endo-A catalyzed transglycosylation” value (Endo-A [1]) is given as “could not be recognized by Endo-A” and the “substrate of Bacillus chitinase” value (Bacillus chitinase) is given as “substrates”.

B1: glycoprotein 44: homogeneous ribonuclease B glycoform carrying nonnatural N-glycan Gal2Man3GlcNAc2 at Asn-34 (protein, UniProt P61823 27-150, looked up)
Ribonuclease pancreatic: KETAAAKFERQHMDSSTSAASSSNYCNQMMKSRNLTKDRCKPVNTFVHESLADVQAVCSQKNVACKNGQTNCYQSYSTMSITDCRETGSSKYPNCAYKTTQANKHIIVACEGNPYVPVHFDASV
modifications: Gal2Man3GlcNAc2 N-glycan at Asn-34
For B1, the “hydrolysis of the ground-state glycopeptide/glycoprotein by Endo-A” value (Endo-A [3]) was “resistant to Endo-A catalyzed hydrolysis”.
